pIC50: −log10 of the molar value. Where two headings read alike, the source gives them in different places.
Molecular target: OR28/OR7 (Anopheles gambiae, UniProt A0A1S4GFY3+Q7QCC7)
Assay: Ca2+-imaging of stable HEK293T cell line OR28/OR7
Format: cell-based
Conditions: for inhibition at 4 µM: HEK-293T, read-out: Percent Inhibition OR28 OR7
Experimental: Full-length cDNAs for mosquito (Anopheles gambiae) odorant receptor (OR1, OR2, OR7, OR8, OR28), and fly (Drosophila melanogaster) odorant receptor (Or47a, Or83b), mouse TRP channel (TRPM8), and mouse serotonin receptor (5HT3) were obtained and subcloned into mammalian expression vectors. The following mammalian expression vectors were used:
Stable cell lines OR1/OR7, OR2/OR7, OR8/OR7, OR10/OR7, OR28/OR7 and TRPM8 were generated from HEK293T cells. HEK293T-based cell lines were cultured in DMEM supplemented with these additional antibiotics: 6 μg/mL blasticidin and 1 μg/mL puromycin, with the exception of the TRPM8 cell lines, which was cultured in DMEM supplemented with 1 μg/mL puromycin.
Cells were trypsinized and split into 35 mm dishes one day before transfection. Confluent cells (60-70%) in 35 mm dishes were transfected with 1 μg of insect OR(X) plasmids in pME18s-bla and 1 μg of OR7-pME18s-puro using lipofectamine 2000. For Anopheles odorant receptors, two plasmids were co-transfected into HEK cells: the ligand-specific receptor (OR1, OR2, OR8, OR28) and the corresponding olfactory co-receptor: OR7. Cell lines containing TRPM8 were transfected with single plasmid.
Stable cell lines were cultured in 10 cm dishes, and confluent cells (70-80%) were trypsinized. 10,000 cells/20 μL were transferred into each well of 384-well plates coated with poly-D-lysine, and cultured for 2 days. For Flip-In T-Rex cells (cell lines expressing Or47a/Or83b and 5HT3), 5 μL of tetracycline (5 μg/mL) were added 1 day before the assay. 20 μL of Ca-4 dye was loaded into each well for 1.5 hr at room temperature in the dark, and the dye-loaded plates were subjected to Ca^2+-imaging using a Hamamatsu FDSS6000 real time fluorescence plate reader. Odorant solutions (9× final concentration) were prepared by dissolving 1M stock solutions into Hank's Buffered Salt Solution (HBSS), and 30 μL of odor solution was transferred to each well in 384-well plates.
Compounds ([…] in DMSO) were stored in 384-well plates, and last two columns (32 wells total) contained only DMSO. 200 nL of small compounds were transferred into the odorant plates before the assay using the Perkin-Elmer Janus workstation. The odorant plates were spun down to remove air bubbles, and placed on the FDSS6000 plate loader, and 5 μL of odorant solution was applied to the cell plate on the FDSS6000. Ca^2+ increase was monitored with fluorescence at 525 nm by excitation at 485 nm.

OR28/OR7, sequence (A0A1S4GFY3 entry or part of it): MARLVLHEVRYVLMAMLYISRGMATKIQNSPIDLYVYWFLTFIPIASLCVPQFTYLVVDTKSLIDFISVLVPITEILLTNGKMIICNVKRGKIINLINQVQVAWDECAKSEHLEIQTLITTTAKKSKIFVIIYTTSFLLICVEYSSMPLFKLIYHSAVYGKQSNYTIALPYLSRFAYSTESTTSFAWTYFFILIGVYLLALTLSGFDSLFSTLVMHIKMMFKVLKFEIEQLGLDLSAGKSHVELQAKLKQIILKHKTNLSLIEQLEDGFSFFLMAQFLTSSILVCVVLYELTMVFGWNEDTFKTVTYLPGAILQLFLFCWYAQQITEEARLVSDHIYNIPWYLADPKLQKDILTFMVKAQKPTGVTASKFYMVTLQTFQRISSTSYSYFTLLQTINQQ
OR28/OR7, sequence (Q7QCC7 whole entry): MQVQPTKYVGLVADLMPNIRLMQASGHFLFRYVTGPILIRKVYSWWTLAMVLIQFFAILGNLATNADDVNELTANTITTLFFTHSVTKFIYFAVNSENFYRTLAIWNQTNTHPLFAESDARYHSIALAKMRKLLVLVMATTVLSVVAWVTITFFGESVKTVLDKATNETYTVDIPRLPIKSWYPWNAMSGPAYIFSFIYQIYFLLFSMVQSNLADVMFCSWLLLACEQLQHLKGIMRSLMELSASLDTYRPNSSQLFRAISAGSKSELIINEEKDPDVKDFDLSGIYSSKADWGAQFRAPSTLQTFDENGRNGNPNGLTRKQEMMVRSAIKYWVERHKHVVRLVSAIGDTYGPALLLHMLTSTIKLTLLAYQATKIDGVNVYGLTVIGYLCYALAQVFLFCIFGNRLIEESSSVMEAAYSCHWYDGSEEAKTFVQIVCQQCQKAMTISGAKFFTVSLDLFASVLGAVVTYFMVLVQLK

| Compound | inhibition at 4 µM (compound applied at 4 μM) [%] | pIC50 (Table B, read-out: IC50 OR28) | pIC50 | inhibition at 4 µM [%] |
| --- | --- | --- | --- | --- |
| COCCNC(=O)c1ccc(CSc2nnc(-c3ccc(C)cc3)n2-c2ccccc2C)cc1 [RU-0053556] | > 75 | 6.00 to 7.00 |  |  |
| COCCCN(Cc1c(-c2ccccc2)noc1N1CCC(C)CC1)C(=O)c1ccccc1F [RU-0036876] | > 75 | > 7.00 |  |  |
| Cc1ccccc1C(=O)N[C@@H]1CCCCC1NC(=O)C1CCCN(S(=O)(=O)c2cc(Cl)ccc2Cl)C1 (some centres unmarked) [RU-0045691] | > 75 | > 7.00 |  |  |
| CN(C)c1ccc(C(=O)N2CCOC(COCc3ccccc3F)C2)cc1 (centres unmarked) [RU-0050325] | > 75 | > 7.00 |  |  |
| C=CCNC(=O)C(NC(=O)c1cccc(C)c1)C1CCN(C(=O)c2cccc(Br)c2)CC1 (centres unmarked) [RU-0039123] | > 75 | > 7.00 |  |  |
| CCN(CC)C(=O)Oc1ccc2c(ccn2Cc2ccccc2Cl)c1NC(=O)CCCCC(=O)OC [RU-0075446] |  |  | > 7.00 | > 75 |
| CCNc1nc(NC(C)C)nc(N(C#N)Cc2ccccc2)n1 [RU-0015806] | > 75 | > 7.00 |  |  |
| COc1cccc(-c2nnc(SCCCC(=O)N3CCN(C(=O)CC(C)(C)C)C(C)C3)n2-c2ccc(C)cc2)c1 (centres unmarked) [RU-0071818] | > 75 | > 7.00 |  |  |
| Fc1ccccc1/C=N/Nc1nc(N2CCCCC2)nc(N2CCOCC2)n1 [RU-0018338] | 51 to 74 | > 7.00 |  |  |
| COc1ccc(OCC(=O)N2CCOC(Cc3ccccc3)C2)cc1 (centres unmarked) [RU-0050384] | > 75 | 6.00 to 7.00 |  |  |
| CCOC(=O)C1CCCN(C(=O)c2csc(CSc3nnc(-c4cccc(OC)c4)n3-c3ccc(C)cc3)n2)C1 (centres unmarked) [RU-0071628] | > 75 | > 7.00 |  |  |
| Cc1nn(-c2ccc(Cl)cc2)c(C)c1C(=O)NCc1ccccn1 [RU-0048608] | > 75 | > 7.00 |  |  |
| CC(=O)OCC(=O)NCC1Cc2cc(Oc3ccccc3)ccc2O1 (centres unmarked) [RU-0079120] | > 75 | > 7.00 |  |  |
| COCCCN(Cc1c(-c2ccccc2)noc1N1CCCC1)C(=O)c1ccc(F)cc1 [RU-0037386] | > 75 | > 7.00 |  |  |
| COc1ccccc1C(=O)C1CCCN(C(=O)c2cccc(N3CCOCC3)c2)C1 (centres unmarked) [RU-0029350] | > 75 | 6.00 to 7.00 |  |  |
| O=C(CCC1CCN(C(=O)c2cccc(-n3cccn3)c2)CC1)Nc1ccccc1 [RU-0032465] | > 75 | > 7.00 |  |  |
| C=CCN(Cc1nccn1Cc1ccccc1F)C(=O)c1cccc(F)c1 [RU-0058232] | > 75 | > 7.00 |  |  |
| O=C(c1c(F)c(F)cc(F)c1F)N1CCOC(Cc2ccccc2)C1 (centres unmarked) [RU-0050393] | > 75 | > 7.00 |  |  |
| CC(C)CN(Cc1nccn1Cc1ccc(Cl)cc1Cl)C(=O)c1ccccc1F [RU-0055322] | > 75 | > 7.00 |  |  |

| Compound | inhibition at 4 µM (compound applied at 4 μM) [%] | pIC50 (Table B, read-out: IC50 OR28) | pIC50 | inhibition at 4 µM [%] |
| --- | --- | --- | --- | --- |
| CC(C)CN(Cc1nccn1Cc1c(F)cccc1Cl)C(=O)c1ccc(F)cc1 [RU-0048054] | < 25 | > 7.00 |  |  |
| O=C(Cc1cccc(F)c1)N1CCOC(COCc2c(Cl)cccc2Cl)C1 (centres unmarked) [RU-0050398] | > 75 | 6.00 to 7.00 |  |  |
| O=C(c1ccco1)N(Cc1nccn1Cc1ccccc1Cl)CC1CC1 [RU-0047281] | > 75 | > 7.00 |  |  |
| Cc1cc(C)c(Cn2ccnc2CN(C(=O)c2ccccc2F)C(C)C)c(C)c1 [RU-0048001] | > 75 | > 7.00 |  |  |
| O=C(NCCC(=O)N1CCOC(COCc2ccc(F)cc2Cl)C1)OCc1ccccc1 (centres unmarked) [RU-0050344] | > 75 | > 7.00 |  |  |
| N#Cc1ccccc1C(=O)N1CCOC(COCc2c(Cl)cccc2Cl)C1 (centres unmarked) [RU-0050405] | > 75 | > 7.00 |  |  |
| O=C(C1CCC1)N(Cc1ccco1)Cc1nccn1Cc1ccccc1Cl [RU-0048066] | > 75 | > 7.00 |  |  |
| CCN(CC)C(=O)Oc1ccc2c(ccn2Cc2cccc(C)c2)c1NC(=O)CCCCC(=O)OC [RU-0075445] |  |  | > 7.00 | > 75 |
| Cc1c(C(=O)NCc2ccco2)cnn1-c1ccccc1 [RU-0047765] | > 75 | > 7.00 |  |  |
| C=CCN(Cc1nccn1Cc1ccccc1F)C(=O)C1CCCC1 [RU-0058964] | > 75 | > 7.00 |  |  |
| O=C(c1cccc(F)c1)N(Cc1c(-c2ccccc2)noc1N1CCCC1)CC1CCCO1 (centres unmarked) [RU-0037434] | > 75 | > 7.00 |  |  |
| COCCN(Cc1nccn1Cc1c(F)cccc1Cl)C(=O)CCc1ccccc1 [RU-0058550] | > 75 | > 7.00 |  |  |
| CCN(CC)C(=O)Oc1ccc2c(ccn2Cc2ccc(Cl)cc2)c1NC(=O)C1CC1 [RU-0075475] |  |  | < 6.00 | > 75 |
| CCN(CC)c1onc(-c2ccc(F)cc2)c1CN(CCCOC)C(=O)c1ccc2c(c1)OCO2 [RU-0036983] | > 75 | > 7.00 |  |  |
| CCn1c(C)c(C(=O)CN(CC2CCCO2)C(=O)C2C[C@H]2c2ccccc2)c(C)c1C(=O)OC (some centres unmarked) [RU-0071273] | > 75 | > 7.00 |  |  |
| C=CCN(Cc1nccn1Cc1ccccc1C)C(=O)CC(C)C [RU-0058298] | > 75 | > 7.00 |  |  |
| COCCN(Cc1c(-c2ccccc2)noc1N1CCSCC1)CC(O)COCc1ccco1 (centres unmarked) [RU-0037278] | > 75 | > 7.00 |  |  |
| CCOC(=O)c1c(NC(C)=O)c(-c2ccc(OC)cc2)cn1Cc1ccccc1 [RU-0077733] | 51 to 74 | > 7.00 |  |  |
| Cc1ccc(-c2nnc(SCCCC(=O)N3CCN(C(=O)c4cccc(F)c4)C(C)C3)n2-c2ccc(C)cc2)cc1 (centres unmarked) [RU-0071789] | > 75 | > 7.00 |  |  |

| Compound | inhibition at 4 µM (compound applied at 4 μM) [%] | pIC50 (Table B, read-out: IC50 OR28) | pIC50 | inhibition at 4 µM [%] |
| --- | --- | --- | --- | --- |
| CCN(CC)c1onc(-c2ccccc2)c1CN(CC1CCCO1)C(=O)c1ccc2c(c1)OCO2 (centres unmarked) [RU-0036875] | > 75 | > 7.00 |  |  |
| CC(C)N(Cc1nccn1Cc1c(F)cccc1Cl)C(=O)c1ccc(Cl)cc1 [RU-0055364] | > 75 | > 7.00 |  |  |
| COc1ccccc1CCC(=O)N1CCC(CCC(=O)Nc2ccccc2)CC1 [RU-0032455] | > 75 | > 7.00 |  |  |
| CCc1cc(N2CCCC2)nc(SCc2ccc(C(=O)N3CCOCC3)o2)n1 [RU-0047568] | > 75 | > 7.00 |  |  |
| c1ccc(CNc2nc(NCc3ccco3)nc(N3CCOCC3)n2)cc1 [RU-0020050] | > 75 | 6.00 to 7.00 |  |  |
| Cc1ccccc1C(=O)N[C@@H]1CCCCC1NC(=O)C1CCN(C(=O)C23CC4CC(CC(C4)C2)C3)CC1 (some centres unmarked) [RU-0045351] | > 75 | > 7.00 |  |  |
| Cc1cccc(Cn2ccnc2CN(C(=O)c2ccccc2F)C2CCCCC2)c1 [RU-0047851] | 26 to 50 | > 7.00 |  |  |
| O=C(c1ccco1)N(Cc1nccn1Cc1c(F)cccc1Cl)C1CC1 [RU-0048046] | > 75 | > 7.00 |  |  |
| COc1ccc(-n2c(Cc3ccccc3)nnc2SCCCC(=O)N2CCN(C(=O)c3ccc(C(F)(F)F)cc3)C(C)C2)cc1 (centres unmarked) [RU-0071828] | > 75 | > 7.00 |  |  |
| COCCCN(Cc1c(-c2ccccc2)noc1N(C)C(C)C)C(=O)c1ccccc1OC [RU-0037003] | > 75 | > 7.00 |  |  |
| Cc1ccccc1C(=O)N[C@@H]1CCCCC1NC(=O)C1CCN(C(=O)c2ccc(C(C)(C)C)cc2)CC1 (some centres unmarked) [RU-0045678] | > 75 | > 7.00 |  |  |
| CCN(C)c1onc(-c2ccccc2)c1CN(CCCOC)C(=O)c1ccco1 [RU-0051926] | > 75 | < 6.00 |  |  |
| COc1ccccc1CC(=O)N1CCOC(COc2ccc(C)cc2)C1 (centres unmarked) [RU-0050390] | > 75 | > 7.00 |  |  |
| CCN(CC)c1onc(-c2ccccc2)c1CN(CC1CCCO1)C(=O)c1ccco1 (centres unmarked) [RU-0036855] | > 75 | > 7.00 |  |  |
| Cc1cc(N(C)C2CCCCC2)nc(SCc2cccc(C(=O)N3CCCC3)c2)n1 [RU-0034108] | 26 to 50 |  |  |  |
| Cc1ccccc1C(=O)N[C@@H]1CCCCC1NC(=O)C1CCN(C(=O)c2cc(C(F)(F)F)cc(C(F)(F)F)c2)CC1 (some centres unmarked) [RU-0045778] | 51 to 74 | > 7.00 |  |  |
| O=C(c1cccnc1Cl)N1CCOC(COCc2c(Cl)cccc2Cl)C1 (centres unmarked) [RU-0050372] | > 75 | > 7.00 |  |  |
| C=CCOc1cccc(C(=O)N2CCCC(C(=O)c3ccccc3OC)C2)c1 (centres unmarked) [RU-0029409] | > 75 | > 7.00 |  |  |
| CCc1c(C(=O)NCc2cccnc2)cnn1-c1ccccc1 [RU-0048504] | > 75 | > 7.00 |  |  |

Source: patent US20130324522A1, “INSECT ODORANT RECEPTOR ANTAGONISTS” (THE ROCKEFELLER UNIVERSITY, priority 2010, published 2013)
